For one compound, EC50 results are on record in article PMC9147060, “Elucidating Pathway and Anesthetic Mechanism of Action of Clove Oil Nanoformulations in Fish” (Pharmaceutics, 2022).

SMILES strings stand for the structures.

This test concerns the target T1, GABAA receptor (γ-aminobutyric acid subtype A receptor).
T1 construct: gene Gabra1; native receptor mixture in cerebral cortical synaptosomal membranes of adult male rats
Kind of test: [3H]muscimol binding to rat cortical membranes, filtration. Conditions: enhancement of 5 nM [3H]muscimol binding; 50 mM Tris-HCl pH 7.4, 0-4 °C, 1 h; in DMSO; positive modulation.

For `C=CCc1ccc(O)c(OC)c1` [eugenol], the EC50 worked out at 1250 µM.
